Data published in ChEMBL document CHEMBL3044826, “Design, synthesis and biological evaluation of some novel substituted 2-mercapto-3-phenethylquinazolines as antitumor agents” (2013).

What was measured:
Format in all cases: functional
UO-31 = assay: Cytotoxicity against Homo sapiens (human) UO31 cells assessed as growth inhibition at 10 uM after 48 hr by coulter counter analysis; details: UO-31, 48 h, read-out: GI
A498 = assay: Cytotoxicity against Homo sapiens (human) A498 cells assessed as growth inhibition at 10 uM after 48 hr by coulter counter analysis; details: A498, 48 h, read-out: GI
786-0 = assay: Cytotoxicity against Homo sapiens (human) 786-0 cells assessed as growth inhibition at 10 uM after 48 hr by coulter counter analysis; details: 786-0, 48 h, read-out: GI
T47D = assay: Cytotoxicity against Homo sapiens (human) T47D cells assessed as growth inhibition at 10 uM after 48 hr by coulter counter analysis; details: read-out: GI
U-251 = assay: Cytotoxicity against Homo sapiens (human) U251 cells assessed as growth inhibition at 10 uM after 48 hr by coulter counter analysis; details: U-251, 48 h, read-out: GI
SF-295 = assay: Cytotoxicity against Homo sapiens (human) SF295 cells assessed as growth inhibition at 10 uM after 48 hr by coulter counter analysis; details: SF-295, 48 h, read-out: GI
HCC 2998 = assay: Cytotoxicity against Homo sapiens (human) HCC2998 cells assessed as growth inhibition at 10 uM after 48 hr by coulter counter analysis; details: HCC 2998, 48 h, read-out: GI
NCI-H522 = assay: Cytotoxicity against Homo sapiens (human) NCI-H522 cells assessed as growth inhibition at 10 uM after 48 hr by coulter counter analysis; details: NCI-H522, 48 h, read-out: GI
[1] = Cytotoxicity against Homo sapiens (human) NCI-ADR-RES cells assessed as growth inhibition at 10 uM after 48 hr by coulter counter analysis; details: read-out: GI
IGROV-1 = assay: Cytotoxicity against Homo sapiens (human) IGROV1 cells assessed as growth inhibition at 10 uM after 48 hr by coulter counter analysis; details: IGROV-1, 48 h, read-out: GI
UACC-62 = assay: Cytotoxicity against Homo sapiens (human) UACC62 cells assessed as growth inhibition at 10 uM after 48 hr by coulter counter analysis; details: UACC-62, 48 h, read-out: GI
UACC-257 = assay: Cytotoxicity against Homo sapiens (human) UACC257 cells assessed as growth inhibition at 10 uM after 48 hr by coulter counter analysis; details: UACC-257, 48 h, read-out: GI
SK-MEL-5 = assay: Cytotoxicity against Homo sapiens (human) SK-MEL-5 cells assessed as growth inhibition at 10 uM after 48 hr by coulter counter analysis; details: SK-MEL-5, 48 h, read-out: GI
COLO 205 = assay: Cytotoxicity against Homo sapiens (human) COLO205 cells assessed as growth inhibition at 10 uM after 48 hr by coulter counter analysis; details: COLO 205, 48 h, read-out: GI
NCI-H460 = assay: Cytotoxicity against Homo sapiens (human) NCI-H460 cells assessed as growth inhibition at 10 uM after 48 hr by coulter counter analysis; details: NCI-H460, 48 h, read-out: GI
NCI-H322M = assay: Cytotoxicity against Homo sapiens (human) NCI-H322M cells assessed as growth inhibition at 10 uM after 48 hr by coulter counter analysis; details: read-out: GI
NCI-H226 = assay: Cytotoxicity against Homo sapiens (human) NCI-H226 cells assessed as growth inhibition at 10 uM after 48 hr by coulter counter analysis; details: NCI-H226, 48 h, read-out: GI
Hs-578T = assay: Cytotoxicity against Homo sapiens (human) Hs578T cells assessed as growth inhibition at 10 uM after 48 hr by coulter counter analysis; details: read-out: GI
MOLT-4 = assay: Cytotoxicity against Homo sapiens (human) MOLT4 cells assessed as growth inhibition at 10 uM after 48 hr by coulter counter analysis; details: MOLT-4, 48 h, read-out: GI
HL-60(TB) = assay: Cytotoxicity against Homo sapiens (human) HL-60(TB) cells assessed as growth inhibition at 10 uM after 48 hr by coulter counter analysis; details: HL-60, 48 h, read-out: GI
CCRF-CEM = assay: Cytotoxicity against Homo sapiens (human) CCRF-CEM cells assessed as growth inhibition at 10 uM after 48 hr by coulter counter analysis; details: read-out: GI

| SMILES | inhibition of growth at 10 µM (UO-31) [%] | inhibition of growth at 10 µM (A498) [%] | inhibition of growth at 10 µM (786-0) [%] | inhibition of growth at 10 µM (T47D) [%] | inhibition of growth at 10 µM (U-251) [%] | inhibition of growth at 10 µM (SF-295) [%] | inhibition of growth at 10 µM (HCC 2998) [%] | inhibition of growth at 10 µM (NCI-H522) [%] | inhibition of growth at 10 µM [1] [%] | inhibition of growth at 10 µM (IGROV-1) [%] | inhibition of growth at 10 µM (UACC-62) [%] | inhibition of growth at 10 µM (UACC-257) [%] | inhibition of growth at 10 µM (SK-MEL-5) [%] | inhibition of growth at 10 µM (COLO 205) [%] | inhibition of growth at 10 µM (NCI-H460) [%] | inhibition of growth at 10 µM (NCI-H322M) [%] | inhibition of growth at 10 µM (NCI-H226) [%] | inhibition of growth at 10 µM (Hs-578T) [%] | inhibition of growth at 10 µM (CCRF-CEM) [%] | also measured |
| --- | --- | --- | --- | --- | --- | --- | --- | --- | --- | --- | --- | --- | --- | --- | --- | --- | --- | --- | --- | --- |
| O=C1c2ccccc2C(=O)N1CCCSc1nc2ccccc2c(=O)n1CCc1ccccc1 | 19 | 20 | 13 | 30 | 15 | < 10 | < 10 | 13 | < 10 | < 10 | 26 | < 10 | 43 | < 10 | < 10 | < 10 | < 10 |  |  |  |
| O=C(CSc1nc2ccccc2c(=O)n1CCc1ccccc1)c1ccc(F)cc1 | 42 | < 10 | 32 | 18 | 19 | < 10 | < 10 | < 10 | < 10 | 21 | < 10 | < 10 | < 10 | < 10 | < 10 | 13 | < 10 | 25 |  |  |
| O=c1c2ccccc2[nH]c(=S)n1CCc1ccccc1 | 33 | 46 | < 10 | < 10 | < 10 | 13 | < 10 | < 10 | < 10 | < 10 | 20 | < 10 | 13 | < 10 | < 10 | < 10 | < 10 | < 10 | 16 | inhibition of growth at 10 µM (MOLT-4): 23%; inhibition of growth at 10 µM (HL-60(TB)): 11% |
| O=c1c2ccccc2nc(SCc2nnc(S)n2Cc2ccccc2)n1CCc1ccccc1 | < 10 | < 10 | < 10 | 38 | < 10 | < 10 | < 10 | 46 | 16 | < 10 | 17 | < 10 | < 10 | < 10 |  | < 10 | 22 | < 10 | 13 |  |
| O=c1c2ccccc2nc(SCc2nnc(S)n2-c2ccccc2)n1CCc1ccccc1 | 30 | 41 | < 10 | 38 | 11 | 12 | < 10 | < 10 | < 10 | 16 | 19 |  | 24 | < 10 | < 10 | < 10 | < 10 | < 10 | 28 |  |
| O=c1c2ccccc2nc(SCCN2CCOCC2)n1CCc1ccccc1 | 14 | < 10 | < 10 |  | < 10 | < 10 | < 10 | < 10 | < 10 | < 10 | < 10 | < 10 | < 10 | < 10 | < 10 | < 10 | < 10 | < 10 |  |  |
| O=c1c2ccccc2nc(SCc2ccc([N+](=O)[O-])cc2)n1CCc1ccccc1 | < 10 | < 10 | < 10 | 15 | < 10 | < 10 | < 10 | < 10 | 12 | < 10 | 22 | < 10 | < 10 | < 10 | < 10 | < 10 |  | 19 |  |  |
| O=C(CSc1nc2ccccc2c(=O)n1CCc1ccccc1)c1ccccc1 | 22 | 46 | < 10 | < 10 | 11 | 18 | < 10 | 11 | < 10 | < 10 | 16 | < 10 | < 10 | < 10 | < 10 | < 10 | < 10 | < 10 |  |  |
| COc1ccc(-n2c(S)nnc2CSc2nc3ccccc3c(=O)n2CCc2ccccc2)cc1 | 30 | 51 | < 10 | < 10 | 11 | 12 | < 10 | < 10 | < 10 | 16 | 19 | < 10 | 24 | < 10 | < 10 | < 10 | < 10 | < 10 | 13 |  |
| O=c1c2ccccc2nc(SCCN2CCCCC2)n1CCc1ccccc1 | 43 | 17 | 14 | 35 | 14 | 13 | < 10 | 11 | 13 | 22 | < 10 | < 10 | 24 | 25 | < 10 | < 10 | < 10 | < 10 |  |  |
| CSc1nc2ccccc2c(=O)n1CCc1ccccc1 | 37 | 18 |  | 59 | 12 | < 10 | < 10 | < 10 | 18 | 24 | 12 | < 10 | 19 | 19 | < 10 | < 10 | 11 | 14 |  |  |
